These results are taken from US20230219965A1 (KSQ Therapeutics, Inc., priority 2020, published 2023).

Molecules are shown by their SMILES. pIC50: −log10 of the molar value. Bounds are passed on as bounds.

USP1/UAF1 enzyme, sequence (O94782 whole entry): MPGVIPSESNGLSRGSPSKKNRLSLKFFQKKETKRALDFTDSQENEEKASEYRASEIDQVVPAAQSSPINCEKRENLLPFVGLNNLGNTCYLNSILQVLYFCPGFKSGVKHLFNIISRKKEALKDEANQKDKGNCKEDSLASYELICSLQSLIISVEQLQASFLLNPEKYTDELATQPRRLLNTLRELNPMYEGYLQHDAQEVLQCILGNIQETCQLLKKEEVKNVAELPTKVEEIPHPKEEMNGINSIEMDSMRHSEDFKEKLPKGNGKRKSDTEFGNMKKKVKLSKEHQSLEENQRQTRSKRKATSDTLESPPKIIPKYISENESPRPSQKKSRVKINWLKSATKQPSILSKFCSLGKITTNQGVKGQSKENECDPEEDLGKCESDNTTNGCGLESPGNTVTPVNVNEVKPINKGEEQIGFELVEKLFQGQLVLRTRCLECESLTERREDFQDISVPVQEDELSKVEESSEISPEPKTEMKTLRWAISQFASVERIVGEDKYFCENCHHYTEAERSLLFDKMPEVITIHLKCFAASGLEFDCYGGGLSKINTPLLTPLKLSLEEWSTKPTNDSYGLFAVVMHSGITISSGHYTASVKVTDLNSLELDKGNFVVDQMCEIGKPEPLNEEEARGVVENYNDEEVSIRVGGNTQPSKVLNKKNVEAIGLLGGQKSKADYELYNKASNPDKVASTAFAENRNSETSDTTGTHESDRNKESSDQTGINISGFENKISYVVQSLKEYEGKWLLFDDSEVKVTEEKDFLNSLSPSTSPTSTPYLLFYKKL
USP1/UAF1 enzyme, sequence (Q8TAF3 whole entry partner): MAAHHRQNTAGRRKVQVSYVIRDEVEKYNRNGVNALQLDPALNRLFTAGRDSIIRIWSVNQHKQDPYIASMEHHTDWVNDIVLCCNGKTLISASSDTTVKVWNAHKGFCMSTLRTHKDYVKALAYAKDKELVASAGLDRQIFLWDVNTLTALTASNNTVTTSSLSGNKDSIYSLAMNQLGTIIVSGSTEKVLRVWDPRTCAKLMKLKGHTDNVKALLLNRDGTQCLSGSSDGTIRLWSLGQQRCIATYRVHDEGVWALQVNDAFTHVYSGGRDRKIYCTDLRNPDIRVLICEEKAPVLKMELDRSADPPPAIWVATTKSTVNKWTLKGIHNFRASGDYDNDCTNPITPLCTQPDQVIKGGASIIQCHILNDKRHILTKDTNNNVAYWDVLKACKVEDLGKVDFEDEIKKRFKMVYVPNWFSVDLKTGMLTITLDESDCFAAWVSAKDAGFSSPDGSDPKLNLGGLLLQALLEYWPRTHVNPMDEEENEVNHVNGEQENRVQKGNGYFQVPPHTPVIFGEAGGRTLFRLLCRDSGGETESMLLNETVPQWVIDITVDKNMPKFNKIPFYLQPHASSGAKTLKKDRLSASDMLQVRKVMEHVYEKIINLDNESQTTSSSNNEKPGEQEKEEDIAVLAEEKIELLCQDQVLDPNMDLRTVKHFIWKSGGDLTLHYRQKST

For the test, the target named is USP1/UAF1 enzyme (Homo sapiens, UniProt O94782). Description: USP1/UAF1 deubiquitination assay (ubiquitin-rhodamine 110 substrate). It is filed as biochemical. Particulars: read-out: USP1 IC50 (Ub-Rho). Here is the method:
Certain Compounds of the Disclosure were assessed for USP1/UAF1 activity in a Ubiquitin Rhodamine assay modified from those described previously.
Deubiquitinase activity was measured using ubiquitin-rhodamine 110 as a substrate. Cleavage of the amide bond between rhodamine and the c-terminal glycine of ubiquitin yields an increase in fluorescence signal. The assay was conducted in 20 μl total volume of assay buffer (50 mM Tris-HCl, pH 7.8, 0.5 mM EDTA, 0.01% Bovine Serum Albumin, 1 mM DTT, 0.01% Tween-20), and 0.05 nM USP1/UAF1 enzyme. Reaction was initiated by addition of 150 nM Ubiquitin-rhodamine (Boston Biochem) substrate.
Compounds of the Disclosure, dissolved in DMSO were tested in dose response format, beginning at […].
The example compounds listed below were added to enzyme/assay buffer mix and incubated 10 min. Substrate mix was added, and reaction mix was read in kinetic mode for 30 min at Ex480/Em540 and IC50 response curves were plotted.
Data for all assay formats was calculated as percent inhibition compared with control wells. Percent inhibition was calculated using the following equation: % inhibition=100×[1−(X−min)/(max−min)], where X is the raw data readout, min is the average of the no enzyme control wells (n=32), max is the average of the DMSO control well (n=32). IC50 values were calculated using the standard four parameter curve fitting algorithm in either Prism GraphPad (La Jolla, Calif.) software, or Collaborative Drug Discovery (Burlingame, Calif.) CDD Vault. See Chem. Biol. 20(1): 55-62 (Jan. 24, 2013); Bioorg. Med. Chem. Lett. 23(20): 5660-5666 (Oct. 15, 2013).
Regarding `CC(C)n1ccnc1-c1ccc(CN2C(=O)CCn3nc(-c4c(Cl)cnn4C(C)C)cc32)cc1Cl` [Example 303], the pIC50 is 6.30 to 7.00.
Next, `COc1cccnc1-c1ccc(N[C@@H]2CCCn3nc(-c4c(OC)ncnc4C4CC4)cc32)cc1Cl` (single isomer, unassigned) [Example 253]: 6.30 to 7.00; `CCn1ncc(Cl)c1-c1cc2n(n1)CCC(=O)N2Cc1ccc(-c2nc(C(F)(F)F)cn2C)c(F)c1` [Example 17, 2-(4-chloro-1-ethyl-1H-pyrazol-5-yl)-4-(3-fluoro-4-(1-methyl-4-(trifluoromethyl)-1H-imidazol-2-yl)benzyl)-6,7-dihydropyrazolo[1,5-a]pyrimidin-5(4H)-one]: above 7.00; `COc1cc(C)cnc1-c1ccc(CN2C(=O)CCn3nc(-c4c(Cl)cnn4C(C)C)cc32)cc1Cl` [Example 301]: 6.30 to 7.00.
Next, `COc1ncnc(C2CC2)c1-c1nc2n(n1)CCC(=O)N2C(C)c1ccc(-n2nc(C(F)(F)F)cc2OC)cc1` (stereo not drawn) [Example 372, 2-(4-cyclopropyl-6-methoxypyrimidin-5-yl)-4-(1-(4-(5-methoxy-3-(trifluoromethyl)-1H-pyrazol-1-yl)phenyl)ethyl)-6,7-dihydro-[1,2,4]triazolo[1,5-a]pyrimidin-5(4H)-one]: above 7.00.
With `CCn1cc(C(F)(F)F)nc1-c1cc2c(cc1F)C(N1C(=O)CCn3nc(-c4c(Cl)cnn4C(C)C)cc31)CC2` (stereo not drawn) [Example 121], the negative logarithm of the IC50 (pIC50) was 6.30 to 7.00.
Next, `CCn1cc(C(F)(F)F)nc1-c1ccc(CN2C(=O)CCn3nc(-c4c(OC)ncnc4C4CC4)nc32)cc1OC(F)F` [Example 192]: 6.30 to 7.00; `CCn1cc(C(F)(F)F)nc1-c1ccc(CN2C(=O)CCn3nc(-c4c(OC)cnn4C(C)C)cc32)cc1` [Example 155]: 6.30 to 7.00.
With `COc1cccnc1-c1ccc(CN2C(=O)CCn3nc(-c4c(OC)ncnc4C4CC4)nc32)cc1F` [Example 308] the figure was 6.30 to 7.00; with `CCn1cc(C(F)(F)F)nc1-c1ccc(CN2C(=O)[C@@H](C)Cn3nc(-c4c(OC)ncnc4C4CC4)nc32)cc1` [Example 381, (S)-2-(4-cyclopropyl-6-methoxypyrimidin-5-yl)-4-(4-(1-ethyl-4-(trifluoromethyl)-1H-imidazol-2-yl)benzyl)-6-methyl-6,7-dihydro-[1,2,4]triazolo[1,5-a]pyrimidin-5(4H)-one], above 7.00.
Next, `CC(c1ccc(F)cc1)N1C(=O)CCn2nc(-c3c(Cl)cnn3C(C)C)cc21` (stereo not drawn) [Example 110]: 6.30 to 7.00; `[2H]C([2H])([2H])C([2H])([2H])n1cc(C(F)(F)F)nc1-c1ccc(NC2CCCn3nc(-c4c(OC)ncnc4C4CC4)cc32)cc1` (stereo not drawn) [Example 389, 2-(4-cyclopropyl-6-methoxypyrimidin-5-yl)-N-(4-(1-(ethyl-d5)-4-(trifluoromethyl)-1H-imidazol-2-yl)phenyl)-4,5,6,7-tetrahydropyrazolo[1,5-a]pyridin-4-amine]: above 7.00; `COc1ncnc(C2CC2)c1-c1cc2n(n1)CCC[C@@H]2Oc1ccc(-c2nc(C(F)(F)F)cn2C(C)CF)cc1` (stereo partly drawn) [Example 393, (4S)-2-(4-cyclopropyl-6-methoxypyrimidin-5-yl)-4-(4-(1-(1-fluoropropan-2-yl)-4-(trifluoromethyl)-1H-imidazol-2-yl)phenoxy)-4,5,6,7-tetrahydropyrazolo[1,5-α]pyridine]: above 7.00.
As for `[2H]C([2H])([2H])C([2H])([2H])n1cc(C(F)(F)F)nc1-c1ccc(CN2C(=O)CCn3nc(-c4c(OC(F)F)ncnc4C4CC4)nc32)cc1` [Example 375, 2-(4-cyclopropyl-6-(difluoromethoxy)pyrimidin-5-yl)-4-(4-(1-(ethyl-d5)-4-(trifluoromethyl)-1H-imidazol-2-yl)benzyl)-6,7-dihydro-[1,2,4]triazolo[1,5-a]pyrimidin-5(4H)-one], the pIC50 was above 7.00.
Next, `COc1ncnc(C2CC2)c1-c1cc2n(n1)CCC(=O)N2Cc1ccc(-c2nc(C(F)(F)F)cn2CCF)cc1` [Example 81]: above 7.00.
Consider `CCn1cc(C(F)(F)F)nc1-c1ccc(NC2CCCn3nc(-c4ccnn4C(C)C)c(Cl)c32)cc1F` (stereo not drawn) [Example 269, 3-chloro-N-(4-(1-ethyl-4-(trifluoromethyl)-1H-imidazol-2-yl)-3-fluorophenyl)-2-(1-isopropyl-1H-pyrazol-5-yl)-4,5,6,7-tetrahydropyrazolo[1,5-α]pyridin-4-amine], for which the pIC50 is below 6.30.
Next, `[2H]C([2H])([2H])C([2H])(n1cc(C(F)(F)F)nc1-c1ccc(CN2C(=O)CCn3nc(-c4c(OC(F)F)ncnc4C4CC4)nc32)cc1)C([2H])([2H])[2H]` [Example 374, 2-(4-cyclopropyl-6-(difluoromethoxy)pyrimidin-5-yl)-4-(4-(1-(propan-2-yl-d7)-4-(trifluoromethyl)-1H-imidazol-2-yl)benzyl)-6,7-dihydro-[1,2,4]triazolo[1,5-a]pyrimidin-5(4H)-one]: above 7.00; `CCn1cc(C(F)(F)F)nc1-c1ccc(CC2NCCn3nc(-c4c(Cl)cnn4C(C)C)cc32)cc1` (stereo not drawn) [Example 359, 2-(4-chloro-1-isopropyl-1H-pyrazol-5-yl)-4-(4-(1-ethyl-4-(trifluoromethyl)-1H-imidazol-2-yl)benzyl)-4,5,6,7-tetrahydropyrazolo[1,5-α]pyrazine]: 6.30 to 7.00; `CCn1cc(C#N)nc1-c1ccc([C@H](C)N2C(=O)CCn3nc(-c4c(OC)ncnc4C4CC4)nc32)cc1` [Example 198]: below 6.30.
With `COc1ccnn1-c1ccc(CN2C(=O)CCn3nc(-c4c(Cl)cnn4C(C)C)cc32)cc1` [Example 117] the figure was 6.30 to 7.00.
Turning to `CC(C)n1ncc(Cl)c1-c1cc2n(n1)CCC(=O)N2Cc1ccc(-c2nccc(C(F)(F)F)n2)c(Cl)c1` [Example 273], the pIC50 was below 6.30.
With `COc1ncnc(C2(C)CC2)c1-c1cc2n(n1)CCC(=O)N2Cc1ccc(-c2nc(C(F)(F)F)cn2C)c(F)c1` [Example 149, 4-(3-fluoro-4-(1-methyl-4-(trifluoromethyl)-1H-imidazol-2-yl)benzyl)-2-(4-methoxy-6-(1-methylcyclopropyl)pyrimidin-5-yl)-6,7-dihydropyrazolo[1,5-α]pyrimidin-5(4H)-one] the figure was 6.30 to 7.00; with `CC(C)n1ncc(Cl)c1-c1cc2n(n1)CCC(=O)N2Cc1ccc(-c2ccn(S(=O)(=O)N(C)C)n2)c(Cl)c1` [Example 320], 6.30 to 7.00; with `CCn1cc(C#N)nc1-c1ccc([C@@H](C)N2C(=O)CCn3nc(-c4c(OC)ncnc4C4CC4)nc32)cc1` [Example 199], 6.30 to 7.00.
With `CCn1nc(-c2ccc(CN3C(=O)CCn4nc(-c5c(C)cnn5C(C)C)cc43)cc2)nc1C(F)(F)F` [Example 15, 4-(4-(1-ethyl-5-(trifluoromethyl)-1H-1,2,4-triazol-3-yl)benzyl)-2-(1-isopropyl-4-methyl-1H-pyrazol-5-yl)-6,7-dihydropyrazolo[1,5-a]pyrimidin-5(4H)-one] the figure was below 6.30.
Next, `Cn1cc(C(F)(F)F)nc1-c1ccc(CN2C(=O)CCn3nc(-c4c(OC(F)F)ncnc4C4CC4)nc32)cc1F` [Example 377, 2-(4-cyclopropyl-6-(difluoromethoxy)pyrimidin-5-yl)-4-(3-fluoro-4-(1-methyl-4-(trifluoromethyl)-1H-imidazol-2-yl)benzyl)-6,7-dihydro-[1,2,4]triazolo[1,5-a]pyrimidin-5(4H)-one]: above 7.00.
On to `Cc1ccn2ncnc(-c3ccc(CN4C(=O)CCn5nc(-c6c(Cl)cnn6C(C)C)cc54)cc3Cl)c12` [Example 280], for which the pIC50 is below 6.30.
With `COc1ccc(-c2ccc(CN3C(=O)CCn4nc(-c5c(Cl)cnn5C(C)C)cc43)cc2Cl)nn1` [Example 319] the figure was below 6.30; with `CC(C)n1cnc(-c2ccc(CN3C(=O)CCn4nc(-c5c(Cl)cnn5C(C)C)cc43)cc2Cl)c1` [Example 315], below 6.30.
For `Cc1nc(-c2ccc(CN3C(=O)CCn4nc(-c5c(Cl)cnn5C(C)C)cc43)cc2Cl)cn1C` [Example 277], the negative logarithm of the IC50 (pIC50) was below 6.30.
With `CC(C)n1ncc(Cl)c1-c1cc2n(n1)CCC(=O)N2Cc1ccc(-c2nc(C(F)(F)F)ccc2F)c(Cl)c1` [Example 316] the figure was 6.30 to 7.00; with `CC(C)n1ncc(Cl)c1-c1cc2n(n1)CCC(=O)N2Cc1ccc(OCc2ccccn2)cc1` [Example 226, 2-(4-chloro-1-isopropyl-1H-pyrazol-5-yl)-4-(4-(pyridin-2-ylmethoxy)benzyl)-6,7-dihydropyrazolo[1,5-α]pyrimidin-5(4H)-one], 6.30 to 7.00; with `CCn1cc(C(F)(F)F)nc1-c1ccc(CN2C(=O)C(NC(C)=O)Cn3nc(-c4c(Cl)cnn4C(C)C)cc32)cc1` (stereo not drawn) [Example 234, N-(2-(4-chloro-1-isopropyl-1H-pyrazol-5-yl)-4-(4-(1-ethyl-4-(trifluoromethyl)-1H-imidazol-2-yl)benzyl)-5-oxo-4,5,6,7-tetrahydropyrazolo[1,5-α]pyrimidin-6-yl)acetamide], 6.30 to 7.00.
